The nature of data set [1]: Particle size and polydispersity index (PDI) of lipid nanoparticles by dynamic light scattering. The class given is physicochemical. The settings on record: for PDI: LNP formulation of the cationic lipid, 25° C.; for Particle size: LNP formulation of the cationic lipid/DSPC/cholesterol/DMG-PEG2000 49:10:39.5:1.5, 25° C. Here is the method:
The particle size and polydispersity index (PDI) were determined by dynamic light scattering using Malvern laser particle size analyzer.
10 μL of the liposome solution was weighed, diluted to 1 mL with RNase-free deionized water, and added to the sample pool. Each sample was measured in triplicate. The measurement conditions were: […] scattering angle, and 25° C.

Data set [2] concerns 293T cells. The data set can be described thus: Fluorescent detection of Fluc-mRNA (cell transfection efficiency of LNP formulations). Conditions: for Relative light unit (RLU): LNP with 0.3 μg Fluc-mRNA, 96-well plate, 24 hours. The class given is cell-based. The method, then:
(§1) Seeding plate: The cells in the culture dish were digested and counted. Cells were spread in a 96-well plate at 10,000 cells per well and in a 12-well plate at 150,000 cells per well. Cells were cultured overnight until the cells adhered to the wall.
The corresponding reagents were added according to the instructions of the Gaussia Luciferase Assay Kit, and the fluorescence expression intensity of each well was detected by an IVIS fluorescence detection system.

In data set [3] the test system is 293T cells. Description: Cell survival rate assay (CCK-8). Type of data set: cell-based. Conditions: LNP with 1.5 μg Fluc-mRNA, 24 hours, CCK-8. The method, then: Cell recovery and passage: 293T cells were recovered, cultured in a culture dish, and passaged to the required number of cells.
as §1
An LNP formulation containing 1.5 μg of Fluc-mRNA (prepared according to example 4, the carrier components of the LNP formulation were cationic lipid, neutral lipid, structured lipid and polymer-conjugated lipid at a molar ratio of 49:10:39.5:1.5, wherein the cationic lipid was listed in Table 1) and the formulation of Lipofectamine 3000 were added to the cell culture medium of a 96-well plate, and further cultivated for 24 hours. 10 μL of CCK-8 solution was then added to each well, and the culture plate was incubated in an incubator for 1 hour. The absorbance at 450 nm was measured by a microplate reader.

The nature of data set [4]: Detection of encapsulation efficiency, drug loading concentration and total RNA concentration (RiboGreen). Type of data set: physicochemical. Conditions: LNP formulation prepared from the cationic lipid. An excerpt: Encapsulation efficiency is a key quality attribute of liposomes, which refers to the percentage of drug content encapsulated in the lipid bimolecular layer accounting for the total drug dose and can reflect the degree of drug encapsulation in liposomes. The Chinese Pharmacopoeia stipulates that the encapsulation efficiency should generally not be less than 80%.
The drug loading amount is the ratio of the amount of drug in the liposome to the total amount of drug and carrier in the liposome. The drug loading amount directly affects the clinical application dose of the drug. […] The drug loading concentration is proportional to the drug loading amount, and the relative proportion of the drug loading concentrations can represent the relative proportion of the drug loading amounts. The relative ratio of the total RNA concentrations may represent the relative ratio of the amounts of mRNA carried by the LNP formulations.
1×TE buffer, 0.1% Triton X-100 buffer, RiboGreen reagent (1: 200) and mRNA standard stock solution were prepared.
An appropriate amount of the sample was added to an appropriate amount of 1×TE buffer, and the mixture was diluted to obtain a solution containing approximately […] sample per 1 mL. Then the sample was added to a 96-well plate, and 50 μL of the diluted test sample or the mRNA standard stock solution was added to each well, then 1×TE buffer and 0.1% Triton X-100 buffer were added. The sample was incubated at 37° C. for 10 minutes, and 100 μL RiboGreen reagent (1:200) was added to each well of the test sample in the 96-well plate. The sample was centrifugated, and the data were read using a microplate reader, and processed.

In data set [1], `CCCCCC(CC)OC(=O)CCCCCCCCN(CCO)CCN(CCO)CCCCCCCCC(=O)OC(CC)CCCCC` (stereo not drawn) [YK-404, di(octan-3-yl) 9, 9′-(ethane-1,2-diyl-bis((2-hydroxyethyl)azanediyl))dinonanoate] gave a PDI of 4.2% and a Particle size of 142 nm. In addition, the “Relative light unit (RLU)” value in the data set with 293T cells [2] is on record as 7543 RLU. In addition, the Cell survival rate in the data set on 293T cells [3] stood at 42.12%. In data set [4], the Drug loading concentration turned out to be 28.45 µg/mL, the Encapsulation efficiency is 75.3% and the “Total RNA concentration” value turned out to be 33.41 µg/mL.

In data set [1], `CCCCCCCCCCOC(=O)CCCN(CCO)CCN(CCO)CCCCCC(=O)OC(CCCCCCCC)CCCCCCCC` [YK-405, Heptadecan-9-yl 6-((2-hydroxyethyl)(2-((2-hydroxyethyl)(4-(decyloxy)-4-oxobutyl)amino)ethyl)amino)hexanoate] gave a PDI of 4.3% and a Particle size of 141 nm. Further, the “Relative light unit (RLU)” value in the data set on 293T cells [2] stood at 3197780 RLU. In the data set on 293T cells [3], this compound displayed a Cell survival rate of 41.86%. Moreover, in data set [4], the Drug loading concentration came to 33.42 µg/mL, the Encapsulation efficiency is listed as 83.2% and the “Total RNA concentration” value came out at 40.19 µg/mL.

In data set [1], `CCCCCCCCCCCOC(=O)CCCN(CCO)CCN(CCO)CCCCCCOC(=O)CC(CCCCCC)CCCCCC` [YK-406, 6-((2-hydroxyethyl) (2-((2-hydroxyethyl)(4-(undecyloxy)-4-oxobutyl)amino)ethyl)amino)hexyl 3-hexylnonanoate] had a PDI of 15.8% and a Particle size of 154 nm. Moreover, in the data set with 293T cells [2], the “Relative light unit (RLU)” value is listed as 78251 RLU. The same compound registered a Cell survival rate in the data set on 293T cells [3] of 24.96%. Besides, in data set [4], the Drug loading concentration was found to be 30.19 µg/mL, the Encapsulation efficiency is reported as 87.8% and the “Total RNA concentration” value worked out at 34.41 µg/mL.

In data set [1], `CCCCCCCCCCOC(=O)CCCN(CCO)CCN(CCO)CCCC(=O)OC(CCCCCCCC)CCCCCCCC` [YK-408, heptadecan-9-yl 4-((2-hydroxyethyl)(2-((2-hydroxyethyl)(4-(decyloxy)-4-oxobutyl)amino)ethyl)amino)butyrate] came in with a PDI of 16.2% and a Particle size of 136 nm. The “Relative light unit (RLU)” value with 293T cells [2] came to 1474136 RLU. Moreover, the Cell survival rate with 293T cells [3] is on record as 42.31%. In addition, in data set [4], the Drug loading concentration came to 45.42 µg/mL, the Encapsulation efficiency is recorded as 86.6% and the “Total RNA concentration” value is 52.46 µg/mL.

Consider `CCCCCCCCCCCOC(=O)CCCN(CCO)CCN(CCO)CCCCCC(=O)OCC(CCCCCCCC)CCCCCCCC` [YK-409, 2-octyldecyl 6-((2-hydroxyethyl)(2-((2-hydroxyethyl)(4-(undecyloxy)-4-oxobutyl)amino)ethyl)amino) hexanoate], for which, in data set [1], the PDI turned out to be 13.7% and the Particle size came out at 155 nm. Besides, the “Relative light unit (RLU)” value in the data set with 293T cells [2] was found to be 669807 RLU. Further, in the data set with 293T cells [3], the Cell survival rate stood at 46.11%. Moreover, in data set [4], the Drug loading concentration was 34.14 µg/mL, the Encapsulation efficiency is given as 86.9% and the “Total RNA concentration” value was determined as 39.27 µg/mL.

In data set [1], `CCCCCCCCCCOC(=O)CCCCCN(CCO)CCN(CCO)CCCCCC(=O)OCC(CCCCCCCC)CCCCCCCC` [YK-410, 2-octyldecyl 6-((2-hydroxyethyl)(2-((2-hydroxyethyl)(6-(decyloxy)-6-oxohexyl)amino)ethyl)amino)hexanoate] returned a PDI of 15.5% and a Particle size of 163 nm. In addition, in the data set on 293T cells [2], the “Relative light unit (RLU)” value is on record as 407868 RLU. Moreover, the Cell survival rate in the data set on 293T cells [3] was 44.92%. Besides, in data set [4], the Drug loading concentration is 29.48 µg/mL, the Encapsulation efficiency came to 88.2% and the “Total RNA concentration” value turned out to be 33.42 µg/mL.

Consider `CCCCCCCCC(CCCCCCCC)C(=O)OCCCCCCN(CCO)CCCN(CCO)CCCCCCOC(=O)C(CCCCCCCC)CCCCCCCC` [YK-412, (propane-1,3-diyl-bis((2-hydroxyethyl)azanediyl))-bis(hexane-6,1-diyl)bis(2-octyldecanoate)], for which the “Relative light unit (RLU)” value in the data set on 293T cells [2] was determined as 3371352 RLU. This compound displayed a Cell survival rate in the data set on 293T cells [3] of 54.14%.

For the compound `CCCCCCCCCCCOC(=O)CCCN(CCO)CCCN(CCO)CCCCCC(=O)OC(CCCCCCCC)CCCCCCCC` [YK-413, heptadecan-9-yl 6-((2-hydroxyethyl)(3-((2-hydroxyethyl)(4-oxo-4-(undecyloxy)butyl)amino)propyl)amino)hexanoate], in data set [1], the PDI is recorded as 16.1% and the Particle size is 160 nm. The “Relative light unit (RLU)” value with 293T cells [2] is 1377048 RLU. The same compound gave a Cell survival rate in the data set with 293T cells [3] of 47.20%. In data set [4], the Drug loading concentration was found to be 23.63 µg/mL, the Encapsulation efficiency is listed as 83.3% and the “Total RNA concentration” value came out at 28.36 µg/mL.

As for `CCCCCCCCCCOC(=O)CCCN(CCO)CCCN(CCO)CCCC(=O)OC(CCCCCCCC)CCCCCCCC` [YK-414, decyl 4-(3-((4-(heptadecan-9-yloxy)-4-oxobutyl)(2-hydroxyethyl)amino)propyl)(2-hydroxyethyl)aminobutyrate], the “Relative light unit (RLU)” value in the data set on 293T cells [2] was determined as 444089 RLU. This compound also displayed a Cell survival rate with 293T cells [3] of 28.75%.

Consider `CCCCCCCCCCOC(=O)CCCCCN(CCO)CCCN(CCO)CCCCCC(=O)OCC(CCCCCCCC)CCCCCCCC` [YK-416, decyl 6-((2-hydroxyethyl)(3-((2-hydroxyethyl)(6-((2-octyldecyl)oxy)-6-oxohexyl)amino)propyl)amino)hexanoate], for which, in data set [1], the PDI is recorded as 19.7% and the Particle size amounted to 190 nm. For the same compound, in the data set on 293T cells [2], the “Relative light unit (RLU)” value was determined as 3975264 RLU. Also, the “cell transfection efficiency, times that of YK-417” value in the data set on 293T cells [2] (ratio vs YK-417) is 34. Besides, in the data set on 293T cells [3], the Cell survival rate is 40.97%. Moreover, in data set [4], the Drug loading concentration is 25.16 µg/mL, the Encapsulation efficiency stood at 79.6% and the “Total RNA concentration” value is 31.62 µg/mL.

Consider `CCCCCCCCC(CCCCCCCC)OC(=O)CCCCCN(CCO)CCCCN(CCO)CCCCCC(=O)OC(CCCCCCCC)CCCCCCCC` [YK-420, di(heptadecan-9-yl) 6,6′-(butane-1,4-diylbis((2-hydroxyethyl)azanediyl))dihexanoate], for which, in data set [1], the PDI stood at 14.2% and the Particle size is given as 169 nm. Besides, in the data set with 293T cells [2], the “Relative light unit (RLU)” value amounted to 4019330 RLU. Moreover, the Cell survival rate with 293T cells [3] amounted to 35.59%. Moreover, in data set [4], the Drug loading concentration is 35.87 µg/mL, the Encapsulation efficiency was 94.9% and the “Total RNA concentration” value came out at 37.81 µg/mL.

Consider `CCCCCCCCCCOC(=O)CCCN(CCO)CCCCN(CCO)CCCCCC(=O)OC(CCCCCCCC)CCCCCCCC` [YK-421, heptadecan-9-yl 6-((4-((4-(decyloxy)-4-oxobutyl)(2-hydroxyethyl)amino)butyl)(2-hydroxyethyl)amino)hexanoate], for which, in data set [1], the PDI was 17.4% and the Particle size is given as 148 nm. In addition, in the data set with 293T cells [2], the “Relative light unit (RLU)” value was 466616 RLU. In addition, the Cell survival rate with 293T cells [3] was determined as 35.71%. Moreover, in data set [4], the Drug loading concentration was 33.93 µg/mL, the Encapsulation efficiency is on record as 83.1% and the “Total RNA concentration” value was determined as 40.83 µg/mL.

(Values after patent US12545637B2, “Extrahepatic targeted cationic lipid compound with high efficiency and low toxicity and its composition” (BEIJING YOUCARE KECHUANG PHARMACEUTICAL TECHNOLOGY CO., LTD., priority 2023, dated 2026).)
